Results from ChEMBL document CHEMBL1152145, “The discovery of equipotent PPARalpha/gamma dual activators” (Bioorg Med Chem Lett, 2008).

Experiments:
[1] = target: T1, Peroxisome proliferator-activated receptor delta (Homo sapiens, UniProt Q03181)
T1 sequence (Q03181 whole entry): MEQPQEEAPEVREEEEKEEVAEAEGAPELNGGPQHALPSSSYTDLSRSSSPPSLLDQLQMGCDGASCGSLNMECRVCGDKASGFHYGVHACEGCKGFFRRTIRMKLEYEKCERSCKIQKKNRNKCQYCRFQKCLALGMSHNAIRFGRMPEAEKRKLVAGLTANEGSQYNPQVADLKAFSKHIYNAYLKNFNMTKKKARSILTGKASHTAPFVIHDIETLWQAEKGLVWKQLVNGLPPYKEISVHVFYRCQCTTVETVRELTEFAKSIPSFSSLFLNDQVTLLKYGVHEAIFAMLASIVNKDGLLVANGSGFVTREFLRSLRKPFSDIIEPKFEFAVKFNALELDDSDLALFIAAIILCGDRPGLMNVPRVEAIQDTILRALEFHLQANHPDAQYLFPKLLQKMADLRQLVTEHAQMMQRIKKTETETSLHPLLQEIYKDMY
Description: (§1) Agonist activity at human PPARdelta receptor by cell based transient transfection assay

[2] = target: T2, Peroxisome proliferator-activated receptor alpha (Homo sapiens, UniProt Q07869)
T2 sequence (Q07869 whole entry): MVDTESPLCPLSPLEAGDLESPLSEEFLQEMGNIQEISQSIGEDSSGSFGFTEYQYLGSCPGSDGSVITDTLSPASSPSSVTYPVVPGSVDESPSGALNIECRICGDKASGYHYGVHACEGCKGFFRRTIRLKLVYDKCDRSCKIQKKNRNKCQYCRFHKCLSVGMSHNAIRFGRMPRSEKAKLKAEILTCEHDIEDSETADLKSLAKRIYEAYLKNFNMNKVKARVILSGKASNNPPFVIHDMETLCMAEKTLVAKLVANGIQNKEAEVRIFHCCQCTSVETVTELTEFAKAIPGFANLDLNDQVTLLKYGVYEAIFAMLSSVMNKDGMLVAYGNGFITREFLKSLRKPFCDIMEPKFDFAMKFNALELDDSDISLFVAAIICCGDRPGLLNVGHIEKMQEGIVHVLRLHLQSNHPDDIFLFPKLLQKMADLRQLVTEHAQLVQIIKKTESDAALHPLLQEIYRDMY
Description: Agonist activity at human PPARalpha receptor by cell based transient transfection assay

[3] = target: T3, Peroxisome proliferator-activated receptor gamma (Homo sapiens, UniProt P37231)
T3 sequence (P37231 whole entry): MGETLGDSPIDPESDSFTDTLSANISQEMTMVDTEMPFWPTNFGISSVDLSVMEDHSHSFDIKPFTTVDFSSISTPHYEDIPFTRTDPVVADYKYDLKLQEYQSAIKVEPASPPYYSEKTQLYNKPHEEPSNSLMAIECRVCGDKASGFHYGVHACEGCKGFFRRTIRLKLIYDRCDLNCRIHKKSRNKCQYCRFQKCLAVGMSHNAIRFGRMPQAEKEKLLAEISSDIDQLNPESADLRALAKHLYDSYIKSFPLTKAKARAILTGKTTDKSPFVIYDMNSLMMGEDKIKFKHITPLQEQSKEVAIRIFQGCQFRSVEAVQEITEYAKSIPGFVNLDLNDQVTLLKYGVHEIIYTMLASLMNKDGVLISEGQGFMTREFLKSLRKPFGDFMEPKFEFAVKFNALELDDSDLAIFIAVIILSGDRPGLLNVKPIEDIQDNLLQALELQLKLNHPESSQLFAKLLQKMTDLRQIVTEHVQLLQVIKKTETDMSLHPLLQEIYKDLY
Description: Agonist activity at human PPARgamma receptor by cell based transient transfection assay

[4] = target: T1, Peroxisome proliferator-activated receptor delta; remark: listed apart in the source
Description: as §1

[5] = target: T4, Peroxisome proliferator-activated receptor alpha (Mus musculus, UniProt P23204)
T4 sequence (P23204 whole entry): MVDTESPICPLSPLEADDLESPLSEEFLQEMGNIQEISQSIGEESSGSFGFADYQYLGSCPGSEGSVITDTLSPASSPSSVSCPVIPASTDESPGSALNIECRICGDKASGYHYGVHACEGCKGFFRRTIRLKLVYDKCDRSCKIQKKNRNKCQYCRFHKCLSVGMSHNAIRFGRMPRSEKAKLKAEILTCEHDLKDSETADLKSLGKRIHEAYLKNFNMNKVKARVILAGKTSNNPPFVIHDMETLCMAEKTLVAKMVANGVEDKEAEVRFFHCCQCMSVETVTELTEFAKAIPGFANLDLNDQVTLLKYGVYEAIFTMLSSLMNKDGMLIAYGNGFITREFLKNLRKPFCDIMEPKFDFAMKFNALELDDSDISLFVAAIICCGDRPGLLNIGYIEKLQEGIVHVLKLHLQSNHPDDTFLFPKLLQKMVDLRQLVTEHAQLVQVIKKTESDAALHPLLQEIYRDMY
Description: Agonist activity at mouse PPARalpha receptor by cell based transient transfection assay

[6] = target: T5, Peroxisome proliferator-activated receptor gamma (Mus musculus, UniProt P37238)
T5 sequence (P37238 whole entry): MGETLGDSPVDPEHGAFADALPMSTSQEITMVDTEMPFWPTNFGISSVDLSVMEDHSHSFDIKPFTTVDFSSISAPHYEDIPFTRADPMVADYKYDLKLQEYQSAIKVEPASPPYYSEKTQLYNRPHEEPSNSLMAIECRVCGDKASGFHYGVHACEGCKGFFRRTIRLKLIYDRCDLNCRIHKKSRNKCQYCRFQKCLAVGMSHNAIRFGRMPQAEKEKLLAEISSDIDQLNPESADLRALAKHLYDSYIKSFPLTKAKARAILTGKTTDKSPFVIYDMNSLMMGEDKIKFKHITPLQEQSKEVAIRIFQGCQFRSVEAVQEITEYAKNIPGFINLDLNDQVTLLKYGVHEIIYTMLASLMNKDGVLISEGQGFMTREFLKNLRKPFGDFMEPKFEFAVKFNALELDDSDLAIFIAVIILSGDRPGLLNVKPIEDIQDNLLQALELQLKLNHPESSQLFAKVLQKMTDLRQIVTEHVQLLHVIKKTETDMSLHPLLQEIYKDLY
Description: Agonist activity at mouse PPARgamma receptor by cell based transient transfection assay

[7] = target: T6, Peroxisome proliferator-activated receptor delta (Mus musculus, UniProt P35396)
T6 sequence (P35396 whole entry): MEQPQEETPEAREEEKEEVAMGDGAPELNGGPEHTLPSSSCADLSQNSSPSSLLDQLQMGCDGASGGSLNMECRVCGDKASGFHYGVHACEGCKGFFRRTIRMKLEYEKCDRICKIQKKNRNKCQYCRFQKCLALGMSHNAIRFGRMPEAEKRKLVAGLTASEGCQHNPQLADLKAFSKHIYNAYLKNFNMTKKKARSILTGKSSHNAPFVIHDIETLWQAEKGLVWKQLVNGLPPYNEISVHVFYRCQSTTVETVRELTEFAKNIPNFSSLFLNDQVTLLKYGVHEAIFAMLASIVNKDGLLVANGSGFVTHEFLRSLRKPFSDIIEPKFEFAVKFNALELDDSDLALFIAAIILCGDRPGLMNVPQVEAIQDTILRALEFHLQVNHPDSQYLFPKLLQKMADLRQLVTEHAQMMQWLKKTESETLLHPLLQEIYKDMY
Description: Agonist activity at mouse PPARdelta receptor by cell based transient transfection assay

Rattus norvegicus [8] = assay: Decrease in insulin level in Zucker fatty (fa/fa) rat at 30 mg/kg, bid after 5 days; format: functional; parameters: scale not given: the % may be the effect or the level left
[9] = Cmax in CD rat at […], iv and 5 mg/kg, po; format: ADME, organism-based; conditions: in vivo
[10] = Clearance in CD rat at […], iv and 5 mg/kg, po; format: ADME, organism-based; conditions: in vivo
[11] = Half life in CD rat at […], iv and 5 mg/kg, po; format: ADME, organism-based; conditions: in vivo
Rattus norvegicus [12] = assay: Decrease in insulin level in Zucker fatty (fa/fa) rat at 10 mg/kg, bid after 5 days; format: functional; parameters: scale not given: the % may be the effect or the level left
[13] = Bioavailability in CD rat at […], iv and 5 mg/kg, po; format: ADME, organism-based; conditions: in vivo
Rattus norvegicus [14] = assay: Increase in liver weight in Zucker fatty (fa/fa) rat at 30 mg/kg, bid after 5 days; format: functional
[15] = AUC in CD rat at 5 mg/kg, po; format: ADME, organism-based; parameters: dose 5 mg/kg, route oral; conditions: plasma
Rattus norvegicus [16] = assay: Decrease in total triglyceride level in Zucker fatty (fa/fa) rat at 30 mg/kg, bid after 5 days; format: functional; parameters: scale not given: the % may be the effect or the level left
[17] = Volume of distribution at steady state in CD rat at […], iv and 5 mg/kg, po; format: ADME, organism-based; conditions: in vivo, read-out: Vdss
Rattus norvegicus [18] = assay: Decrease in total triglyceride level in Zucker fatty (fa/fa) rat at 10 mg/kg, bid after 5 days; format: functional; parameters: scale not given: the % may be the effect or the level left
Rattus norvegicus [19] = assay: Increase in liver weight in Zucker fatty (fa/fa) rat at 10 mg/kg, bid after 5 days; format: functional

EC50 [1]	EC50 [2]	EC50 [3]	Structure (SMILES)	also measured
10000 nM	4 nM	800 nM	Cc1nc(-c2ccc(C(C)(C)C)cc2)sc1C(=O)NCc1ccc(OC(C)(C)C(=O)O)cc1	–
–	160 nM	1000 nM	Cn1nc(-c2ccc(C(C)(C)C)cc2)cc1C(=O)NCc1ccc(OC(C)(C)C(=O)O)cc1	EC50 [4]: 10000 nM
4850 nM	–	8 nM	Cc1cc(CNC(=O)c2cc(-c3ccc(C(C)C)cc3)n(C)n2)ccc1OC(C)(C)C(=O)O	EC50 [5]: 280 nM; EC50 [6]: 16 nM; EC50 [7]: 7100 nM
> 25000 nM	10 nM	15 nM	CCn1nc(C(=O)NCc2ccc(OC(C)(C)C(=O)O)c(C)c2)cc1-c1ccc(C(C)(C)C)cc1	EC50 [5]: 2260 nM; EC50 [6]: 36 nM; EC50 [7]: > 25000 nM
> 25000 nM	> 25000 nM	176 nM	COc1cc(CNC(=O)c2cc(-c3ccc(C(C)(C)C)cc3)n(C)n2)ccc1OC(C)(C)C(=O)O	–
> 25000 nM	> 25000 nM	–	COc1cc(CNC(=O)c2cc(-c3ccc(CC(C)C)cc3)n(C)n2)ccc1OC(C)(C)C(=O)O	–
2700 nM	50 nM	30 nM	CCn1nc(-c2ccc(C(C)(C)C)cc2)cc1C(=O)NCc1ccc(OC(C)(C)C(=O)O)c(C)c1	–
–	8 nM	–	Cc1cc(CNC(=O)c2cc(-c3ccc(N4CCCC4)cc3)n(C)n2)ccc1OC(C)(C)C(=O)O	–
25000 nM	200 nM	–	Cc1cc(CNC(=O)c2cc(-c3ccc(C(C)(C)C)cc3)n(Cc3ccccc3)n2)ccc1OC(C)(C)C(=O)O	–

Continued, compound first:

Structure (SMILES)	EC50 [1]	EC50 [2]	EC50 [3]	also measured
Cc1cc(CNC(=O)c2cc(-c3ccc(CC(C)C)cc3)nn2C)ccc1OC(C)(C)C(=O)O	2870 nM	45 nM	50 nM	–
C=CCn1nc(-c2ccc(C(C)(C)C)cc2)cc1C(=O)NCc1ccc(OC(C)(C)C(=O)O)c(C)c1	–	45 nM	60 nM	–
Cc1cc(CNC(=O)c2cc(-c3ccc(C(C)C)cc3)nn2C)ccc1OC(C)(C)C(=O)O	1360 nM	20 nM	50 nM	–
Cc1cc(CNC(=O)c2cc(-c3ccc(N4CCOCC4)cc3)n(C)n2)ccc1OC(C)(C)C(=O)O	35 nM	85 nM	110 nM	–
Cc1cc(CNC(=O)c2cc(-c3ccc(-c4ccccc4C)cc3)n(C)n2)ccc1OC(C)(C)C(=O)O	–	90 nM	30 nM	EC50 [5]: 1800 nM; EC50 [6]: 60 nM; EC50 [7]: > 25000 nM
C=CCOc1ccc(-c2cc(C(=O)NCc3ccc(OC(C)(C)C(=O)O)c(C)c3)nn2C)cc1	> 25000 nM	–	–	–
Cc1cc(CNC(=O)c2cc(-c3ccc(OCc4ccccc4)cc3)n(C)n2)ccc1OC(C)(C)C(=O)O	> 25000 nM	> 25000 nM	80 nM	–
CCn1nc(C(=O)NCc2ccc(OC(C)(C)C(=O)O)c(OC)c2)cc1-c1ccc(C(C)(C)C)cc1	> 25000 nM	> 25000 nM	190 nM	–
C=CCn1nc(C(=O)NCc2ccc(OC(C)(C)C(=O)O)c(C)c2)cc1-c1ccc(C(C)(C)C)cc1	–	–	–	EC50 [5]: 6000 nM; EC50 [6]: 150 nM; EC50 [7]: > 25000 nM
Cc1cc(CNC(=O)c2cc(-c3ccc(C(C)(C)C)cc3)n(C)n2)ccc1OC(C)(C)C(=O)O	> 10000 nM	10 nM	–	EC50 [5]: 640 nM; EC50 [6]: 11 nM; Activity (Rattus norvegicus [8]): 35%; Cmax [9]: 1130 ng/mL; clearance [10]: 17 mL/min/kg; EC50 [7]: > 25000 nM; half-life [11]: 49.8 min; Activity (Rattus norvegicus [12]): 10%; bioavailability [13]: 22%; Activity (Rattus norvegicus [14]): 14%; AUC [15]: 1790 ng·h/mL; Activity (Rattus norvegicus [16]): 45%; Vd [17]: 0.3 L/kg; Activity (Rattus norvegicus [18]): 57%; Activity (Rattus norvegicus [19]): 9%
